We go through two molecules from ChEMBL document CHEMBL5212743, “Selectivity Literature for EUbOPEN Chemogenomics Library wave 3” (2023).

Molecules are shown by their SMILES.

For data set [1], the target named is Serine/threonine-protein kinase PRP4 homolog (Homo sapiens) (UniProt Q13523). In words: Selectivity interaction (KinomeScan (DiscoverX)) EUB0000264b PRPF4B. The conditions noted are these: at 10 µM.
Data set [2] deals with T1, Gamma-aminobutyric acid receptor subunit alpha-1 (Homo sapiens, UniProt P14867).
T1 sequence (P14867 whole entry): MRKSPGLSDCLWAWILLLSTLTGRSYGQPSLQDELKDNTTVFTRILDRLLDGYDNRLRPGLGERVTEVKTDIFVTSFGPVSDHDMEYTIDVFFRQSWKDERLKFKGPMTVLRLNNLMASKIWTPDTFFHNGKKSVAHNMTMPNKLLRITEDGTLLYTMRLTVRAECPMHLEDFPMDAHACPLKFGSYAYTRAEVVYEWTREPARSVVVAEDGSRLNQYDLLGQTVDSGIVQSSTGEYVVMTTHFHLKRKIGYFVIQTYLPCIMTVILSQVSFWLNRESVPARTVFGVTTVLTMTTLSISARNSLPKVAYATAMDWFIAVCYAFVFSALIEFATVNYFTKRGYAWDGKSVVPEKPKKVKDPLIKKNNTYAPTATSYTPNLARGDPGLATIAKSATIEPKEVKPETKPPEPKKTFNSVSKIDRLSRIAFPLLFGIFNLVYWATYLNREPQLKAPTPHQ
Nature of the data set: Selectivity interaction (GPCR panel (PDSP screen)) EUB0000264b GABRA1.

In data set [3] the target is T2, Myosin-IIIb (Homo sapiens) (UniProt Q8WXR4).
T2 sequence (whole entry): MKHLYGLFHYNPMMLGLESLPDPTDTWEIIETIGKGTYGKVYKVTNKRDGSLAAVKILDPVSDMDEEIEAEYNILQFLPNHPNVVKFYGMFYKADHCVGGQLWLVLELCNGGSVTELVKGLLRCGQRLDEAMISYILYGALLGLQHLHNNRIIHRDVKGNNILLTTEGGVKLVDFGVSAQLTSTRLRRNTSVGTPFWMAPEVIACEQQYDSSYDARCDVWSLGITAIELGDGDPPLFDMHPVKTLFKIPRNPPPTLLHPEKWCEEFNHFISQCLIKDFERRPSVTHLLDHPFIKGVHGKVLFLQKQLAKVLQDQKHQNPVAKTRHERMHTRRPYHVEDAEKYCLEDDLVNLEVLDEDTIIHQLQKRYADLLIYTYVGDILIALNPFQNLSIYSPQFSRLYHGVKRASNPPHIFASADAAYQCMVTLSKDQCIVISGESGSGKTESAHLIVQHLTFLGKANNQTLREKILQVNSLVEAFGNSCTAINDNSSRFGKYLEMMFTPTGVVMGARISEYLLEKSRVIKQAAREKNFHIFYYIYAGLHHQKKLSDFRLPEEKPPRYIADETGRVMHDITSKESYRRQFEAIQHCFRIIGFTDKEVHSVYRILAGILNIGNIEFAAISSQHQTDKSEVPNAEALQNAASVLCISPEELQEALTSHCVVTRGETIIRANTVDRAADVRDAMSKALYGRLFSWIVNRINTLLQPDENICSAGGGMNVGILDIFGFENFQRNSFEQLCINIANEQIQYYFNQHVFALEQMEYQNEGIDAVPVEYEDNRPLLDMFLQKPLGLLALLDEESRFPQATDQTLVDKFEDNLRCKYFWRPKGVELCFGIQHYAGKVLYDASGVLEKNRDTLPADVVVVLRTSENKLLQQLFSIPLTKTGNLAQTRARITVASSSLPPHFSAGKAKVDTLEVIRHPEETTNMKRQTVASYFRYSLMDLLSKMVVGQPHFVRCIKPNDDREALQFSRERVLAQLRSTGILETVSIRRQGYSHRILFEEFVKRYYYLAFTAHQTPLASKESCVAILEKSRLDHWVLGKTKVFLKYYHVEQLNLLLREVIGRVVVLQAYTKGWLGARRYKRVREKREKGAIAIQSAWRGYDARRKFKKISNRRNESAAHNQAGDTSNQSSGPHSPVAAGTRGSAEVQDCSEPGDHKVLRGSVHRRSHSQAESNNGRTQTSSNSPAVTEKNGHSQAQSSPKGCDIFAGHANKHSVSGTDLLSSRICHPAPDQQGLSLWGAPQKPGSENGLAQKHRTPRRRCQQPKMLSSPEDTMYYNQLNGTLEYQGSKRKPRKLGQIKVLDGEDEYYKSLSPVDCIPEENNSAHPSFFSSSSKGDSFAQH
In words: Selectivity interaction (KinomeScan (DiscoverX)) EUB0000264b MYO3B. As to conditions: at 10 µM.

The target of data set [4] is T3, Adenosine receptor A3 (Homo sapiens) (UniProt P0DMS8).
T3 sequence (whole entry): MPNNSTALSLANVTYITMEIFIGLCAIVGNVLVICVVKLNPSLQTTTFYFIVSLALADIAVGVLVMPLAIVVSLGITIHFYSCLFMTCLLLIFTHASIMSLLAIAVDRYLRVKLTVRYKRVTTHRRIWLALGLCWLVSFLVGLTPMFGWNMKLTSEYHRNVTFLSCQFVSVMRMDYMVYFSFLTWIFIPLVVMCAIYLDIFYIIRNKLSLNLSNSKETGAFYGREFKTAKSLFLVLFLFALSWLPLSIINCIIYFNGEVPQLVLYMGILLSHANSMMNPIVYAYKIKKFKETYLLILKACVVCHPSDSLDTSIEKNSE
In words: Selectivity interaction (CEREP panel (Eurofins, binding assay)) EUB0000262b ADORA3. As to conditions: at 10 µM.

In data set [5] the target is T3, Adenosine receptor A3 (Homo sapiens). Nature of the data set: Selectivity interaction (Enzyme panel (Eurofins-Cerep)) EUB0000262b ADORA3. The conditions noted are these: at 10 µM.
Data set [6] has as its target Peroxisome proliferator-activated receptor gamma (Homo sapiens) (UniProt P37231). Nature of the data set: Selectivity interaction (CEREP panel (Eurofins, binding assay)) EUB0000262b PPARG. As to conditions: at 10 µM.
For data set [7] the target is unchanged. Nature of the data set: Selectivity interaction (Enzyme panel (Eurofins-Cerep)) EUB0000262b PPARG. The conditions noted are these: at 10 µM.
Data set [8] addresses Cholecystokinin receptor type A (Homo sapiens) (UniProt P32238). Nature of the data set: Selectivity interaction (CEREP panel (Eurofins, binding assay)) EUB0000262b CCKAR. The conditions noted are these: at 10 µM.
For data set [9] the target is unchanged. In words: Selectivity interaction (Enzyme panel (Eurofins-Cerep)) EUB0000262b CCKAR. The conditions noted are these: at 10 µM.
The target in data set [10] is T4, Histamine H1 receptor (Homo sapiens, UniProt P35367). Nature of the data set: Selectivity interaction (CEREP panel (Eurofins, binding assay)) EUB0000262b HRH1. The conditions noted are these: at 10 µM.
T4 sequence (P35367 whole entry): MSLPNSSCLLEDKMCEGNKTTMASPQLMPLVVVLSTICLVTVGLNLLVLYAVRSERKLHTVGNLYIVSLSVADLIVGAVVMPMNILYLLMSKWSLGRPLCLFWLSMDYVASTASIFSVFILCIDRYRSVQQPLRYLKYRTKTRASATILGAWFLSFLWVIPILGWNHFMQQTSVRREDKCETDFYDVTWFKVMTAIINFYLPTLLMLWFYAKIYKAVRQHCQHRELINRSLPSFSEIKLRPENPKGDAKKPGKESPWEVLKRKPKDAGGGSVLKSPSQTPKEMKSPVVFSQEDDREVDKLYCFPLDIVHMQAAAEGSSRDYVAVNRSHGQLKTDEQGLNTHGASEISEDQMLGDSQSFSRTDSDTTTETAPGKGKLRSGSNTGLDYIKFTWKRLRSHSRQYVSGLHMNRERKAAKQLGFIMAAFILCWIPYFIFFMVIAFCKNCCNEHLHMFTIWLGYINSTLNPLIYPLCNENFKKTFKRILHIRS
Data set [11] addresses T4, Histamine H1 receptor. In words: Selectivity interaction (Enzyme panel (Eurofins-Cerep)) EUB0000262b HRH1. As to conditions: at 10 µM.
Data set [12] deals with Delta-type opioid receptor (Homo sapiens) (UniProt P41143). In words: Selectivity interaction (CEREP panel (Eurofins, binding assay)) EUB0000262b OPRD1. As to conditions: at 10 µM.
Sequence of Delta-type opioid receptor (Homo sapiens) (P41143 whole entry): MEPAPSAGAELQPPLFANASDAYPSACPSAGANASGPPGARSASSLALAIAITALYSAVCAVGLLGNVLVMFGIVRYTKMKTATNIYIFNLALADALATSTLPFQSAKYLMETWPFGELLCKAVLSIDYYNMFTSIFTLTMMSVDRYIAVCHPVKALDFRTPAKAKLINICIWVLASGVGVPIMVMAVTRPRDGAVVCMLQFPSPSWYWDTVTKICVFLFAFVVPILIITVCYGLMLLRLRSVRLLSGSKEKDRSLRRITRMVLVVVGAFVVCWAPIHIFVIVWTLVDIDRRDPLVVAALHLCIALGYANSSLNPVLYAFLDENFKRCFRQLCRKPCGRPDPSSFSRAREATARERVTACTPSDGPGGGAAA
The target is the same in data set [13]. In words: Selectivity interaction (Enzyme panel (Eurofins-Cerep)) EUB0000262b OPRD1. As to conditions: at 10 µM.
Data set [14] addresses MAP/microtubule affinity-regulating kinase 3 (Homo sapiens) (UniProt P27448). In words: Selectivity interaction (KinomeScan (DiscoverX)) EUB0000262b MARK3. The conditions noted are these: at 1 µM.
Data set [15] concerns the target T5, Prostaglandin G/H synthase 2 (Homo sapiens) (UniProt P35354).
T5 sequence (whole entry): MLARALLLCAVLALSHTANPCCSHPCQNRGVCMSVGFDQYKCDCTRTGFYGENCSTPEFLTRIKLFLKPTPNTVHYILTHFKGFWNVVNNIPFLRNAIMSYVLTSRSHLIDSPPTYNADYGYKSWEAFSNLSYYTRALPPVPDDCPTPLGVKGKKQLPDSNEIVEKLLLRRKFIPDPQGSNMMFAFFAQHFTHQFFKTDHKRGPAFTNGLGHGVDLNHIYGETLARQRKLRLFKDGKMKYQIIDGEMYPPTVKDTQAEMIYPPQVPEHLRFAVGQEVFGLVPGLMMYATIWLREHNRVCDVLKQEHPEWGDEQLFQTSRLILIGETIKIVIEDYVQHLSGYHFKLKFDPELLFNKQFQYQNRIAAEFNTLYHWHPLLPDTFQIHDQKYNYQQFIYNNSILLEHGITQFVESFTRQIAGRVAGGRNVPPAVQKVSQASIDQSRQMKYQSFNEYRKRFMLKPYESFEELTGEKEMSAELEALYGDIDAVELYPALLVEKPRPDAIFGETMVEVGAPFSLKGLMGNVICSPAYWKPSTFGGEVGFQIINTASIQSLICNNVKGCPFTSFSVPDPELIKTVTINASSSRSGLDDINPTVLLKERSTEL
In words: Selectivity interaction (CEREP panel (Eurofins, binding assay)) EUB0000262b PTGS2. The conditions noted are these: at 10 µM.

The target of data set [16] is T5, Prostaglandin G/H synthase 2 (Homo sapiens). In words: Selectivity interaction (Enzyme panel (Eurofins-Cerep)) EUB0000262b PTGS2. As to conditions: at 10 µM.
Data set [17] addresses T6, Aurora kinase C (Homo sapiens) (UniProt Q9UQB9).
T6 sequence (whole entry): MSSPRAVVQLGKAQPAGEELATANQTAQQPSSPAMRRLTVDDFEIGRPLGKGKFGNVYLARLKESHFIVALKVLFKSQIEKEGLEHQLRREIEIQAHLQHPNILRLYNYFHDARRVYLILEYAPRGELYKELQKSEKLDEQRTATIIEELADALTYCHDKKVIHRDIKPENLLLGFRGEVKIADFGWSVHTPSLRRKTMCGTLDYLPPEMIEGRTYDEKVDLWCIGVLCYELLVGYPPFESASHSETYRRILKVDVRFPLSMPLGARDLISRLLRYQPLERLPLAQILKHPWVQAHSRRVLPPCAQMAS
Nature of the data set: Selectivity interaction (KinomeScan (DiscoverX)) EUB0000262b AURKC. The conditions noted are these: at 1 µM.

Data set [18] concerns the target Urotensin-2 receptor (Homo sapiens) (UniProt Q9UKP6). Nature of the data set: Selectivity interaction (CEREP panel (Eurofins, binding assay)) EUB0000262b UTS2R. The conditions noted are these: at 10 µM.
For data set [19] the target is unchanged. In words: Selectivity interaction (Enzyme panel (Eurofins-Cerep)) EUB0000262b UTS2R. As to conditions: at 10 µM.
The target of data set [20] is T1, Gamma-aminobutyric acid receptor subunit alpha-1. Nature of the data set: Selectivity interaction (GPCR panel (PDSP screen)) EUB0000262b GABRA1.
Data set [21] addresses T7, Amine oxidase [flavin-containing] A (Homo sapiens, UniProt P21397). Nature of the data set: Selectivity interaction (CEREP panel (Eurofins, binding assay)) EUB0000262b MAOA. The conditions noted are these: at 10 µM.
Data set [22] addresses T7, Amine oxidase [flavin-containing] A. Nature of the data set: Selectivity interaction (Enzyme panel (Eurofins-Cerep)) EUB0000262b MAOA. As to conditions: at 10 µM.

Sequence of Urotensin-2 receptor (Homo sapiens) (Q9UKP6 whole entry): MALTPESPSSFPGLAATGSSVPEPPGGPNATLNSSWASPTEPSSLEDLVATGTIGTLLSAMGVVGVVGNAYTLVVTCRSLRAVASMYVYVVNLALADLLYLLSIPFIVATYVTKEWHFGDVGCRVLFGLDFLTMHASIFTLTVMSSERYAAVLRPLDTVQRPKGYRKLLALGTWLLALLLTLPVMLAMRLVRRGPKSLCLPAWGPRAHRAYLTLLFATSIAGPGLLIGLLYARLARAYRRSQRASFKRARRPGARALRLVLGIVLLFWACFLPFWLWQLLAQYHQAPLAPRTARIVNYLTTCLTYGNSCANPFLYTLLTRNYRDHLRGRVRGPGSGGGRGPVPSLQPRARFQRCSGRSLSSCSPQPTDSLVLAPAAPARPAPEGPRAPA
T7 sequence (P21397 whole entry): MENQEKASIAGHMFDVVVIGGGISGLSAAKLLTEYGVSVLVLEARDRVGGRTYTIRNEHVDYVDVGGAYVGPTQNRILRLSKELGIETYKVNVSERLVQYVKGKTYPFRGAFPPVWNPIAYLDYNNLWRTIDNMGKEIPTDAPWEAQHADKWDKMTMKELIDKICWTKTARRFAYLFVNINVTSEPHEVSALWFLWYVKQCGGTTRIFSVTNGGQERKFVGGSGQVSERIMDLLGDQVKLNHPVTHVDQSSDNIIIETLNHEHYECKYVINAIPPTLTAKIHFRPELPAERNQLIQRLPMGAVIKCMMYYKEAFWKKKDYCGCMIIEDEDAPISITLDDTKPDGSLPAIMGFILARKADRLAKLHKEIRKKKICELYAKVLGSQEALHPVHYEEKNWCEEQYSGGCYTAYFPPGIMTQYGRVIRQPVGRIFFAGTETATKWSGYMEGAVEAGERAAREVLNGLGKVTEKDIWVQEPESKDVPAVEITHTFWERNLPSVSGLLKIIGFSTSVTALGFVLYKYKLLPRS
Sequence of Peroxisome proliferator-activated receptor gamma (Homo sapiens) (P37231 whole entry): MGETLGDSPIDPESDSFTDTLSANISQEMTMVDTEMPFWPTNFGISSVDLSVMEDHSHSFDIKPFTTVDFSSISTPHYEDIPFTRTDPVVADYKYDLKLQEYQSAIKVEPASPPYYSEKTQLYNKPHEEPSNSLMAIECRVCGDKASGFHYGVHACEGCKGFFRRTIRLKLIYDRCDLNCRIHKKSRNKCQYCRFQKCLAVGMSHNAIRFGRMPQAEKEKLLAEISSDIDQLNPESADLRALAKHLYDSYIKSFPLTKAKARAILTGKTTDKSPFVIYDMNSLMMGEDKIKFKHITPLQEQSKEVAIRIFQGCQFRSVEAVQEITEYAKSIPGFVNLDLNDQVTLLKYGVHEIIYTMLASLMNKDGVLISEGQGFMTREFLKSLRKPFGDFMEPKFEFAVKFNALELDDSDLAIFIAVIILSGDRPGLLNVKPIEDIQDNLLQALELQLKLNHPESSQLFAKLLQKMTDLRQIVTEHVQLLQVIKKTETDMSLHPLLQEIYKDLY
Sequence of Cholecystokinin receptor type A (Homo sapiens) (P32238 whole entry): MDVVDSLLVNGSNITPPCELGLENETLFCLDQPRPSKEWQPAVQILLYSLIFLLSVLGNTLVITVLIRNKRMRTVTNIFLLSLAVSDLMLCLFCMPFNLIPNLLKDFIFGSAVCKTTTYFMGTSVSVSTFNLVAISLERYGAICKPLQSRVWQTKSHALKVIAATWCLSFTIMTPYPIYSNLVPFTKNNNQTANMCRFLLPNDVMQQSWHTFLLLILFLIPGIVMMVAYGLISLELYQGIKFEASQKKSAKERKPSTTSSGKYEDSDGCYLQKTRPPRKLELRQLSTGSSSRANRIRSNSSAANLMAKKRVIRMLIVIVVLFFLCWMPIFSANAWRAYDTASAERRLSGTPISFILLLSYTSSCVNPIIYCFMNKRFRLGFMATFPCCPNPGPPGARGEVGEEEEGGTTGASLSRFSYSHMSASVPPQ
Sequence of MAP/microtubule affinity-regulating kinase 3 (Homo sapiens) (P27448 whole entry, looked up): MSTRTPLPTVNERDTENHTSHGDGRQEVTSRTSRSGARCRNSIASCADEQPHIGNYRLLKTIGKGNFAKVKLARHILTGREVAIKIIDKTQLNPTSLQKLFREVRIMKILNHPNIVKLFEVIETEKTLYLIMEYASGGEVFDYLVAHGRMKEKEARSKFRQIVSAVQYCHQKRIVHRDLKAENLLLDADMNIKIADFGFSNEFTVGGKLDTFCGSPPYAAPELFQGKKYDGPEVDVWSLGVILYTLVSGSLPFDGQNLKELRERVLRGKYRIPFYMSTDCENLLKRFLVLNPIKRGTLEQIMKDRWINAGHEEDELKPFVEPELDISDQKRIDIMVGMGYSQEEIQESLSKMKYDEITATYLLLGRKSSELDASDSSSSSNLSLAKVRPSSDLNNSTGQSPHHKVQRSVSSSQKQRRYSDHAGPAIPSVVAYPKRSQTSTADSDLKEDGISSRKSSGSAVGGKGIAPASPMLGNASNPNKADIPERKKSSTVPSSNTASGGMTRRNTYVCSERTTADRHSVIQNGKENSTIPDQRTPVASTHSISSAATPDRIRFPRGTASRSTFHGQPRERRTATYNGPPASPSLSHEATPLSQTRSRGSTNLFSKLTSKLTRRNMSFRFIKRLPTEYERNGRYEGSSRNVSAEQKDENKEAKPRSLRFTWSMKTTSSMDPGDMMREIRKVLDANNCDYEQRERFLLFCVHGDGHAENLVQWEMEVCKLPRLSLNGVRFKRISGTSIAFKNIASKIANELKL
Sequence of Serine/threonine-protein kinase PRP4 homolog (Homo sapiens) (Q13523 whole entry): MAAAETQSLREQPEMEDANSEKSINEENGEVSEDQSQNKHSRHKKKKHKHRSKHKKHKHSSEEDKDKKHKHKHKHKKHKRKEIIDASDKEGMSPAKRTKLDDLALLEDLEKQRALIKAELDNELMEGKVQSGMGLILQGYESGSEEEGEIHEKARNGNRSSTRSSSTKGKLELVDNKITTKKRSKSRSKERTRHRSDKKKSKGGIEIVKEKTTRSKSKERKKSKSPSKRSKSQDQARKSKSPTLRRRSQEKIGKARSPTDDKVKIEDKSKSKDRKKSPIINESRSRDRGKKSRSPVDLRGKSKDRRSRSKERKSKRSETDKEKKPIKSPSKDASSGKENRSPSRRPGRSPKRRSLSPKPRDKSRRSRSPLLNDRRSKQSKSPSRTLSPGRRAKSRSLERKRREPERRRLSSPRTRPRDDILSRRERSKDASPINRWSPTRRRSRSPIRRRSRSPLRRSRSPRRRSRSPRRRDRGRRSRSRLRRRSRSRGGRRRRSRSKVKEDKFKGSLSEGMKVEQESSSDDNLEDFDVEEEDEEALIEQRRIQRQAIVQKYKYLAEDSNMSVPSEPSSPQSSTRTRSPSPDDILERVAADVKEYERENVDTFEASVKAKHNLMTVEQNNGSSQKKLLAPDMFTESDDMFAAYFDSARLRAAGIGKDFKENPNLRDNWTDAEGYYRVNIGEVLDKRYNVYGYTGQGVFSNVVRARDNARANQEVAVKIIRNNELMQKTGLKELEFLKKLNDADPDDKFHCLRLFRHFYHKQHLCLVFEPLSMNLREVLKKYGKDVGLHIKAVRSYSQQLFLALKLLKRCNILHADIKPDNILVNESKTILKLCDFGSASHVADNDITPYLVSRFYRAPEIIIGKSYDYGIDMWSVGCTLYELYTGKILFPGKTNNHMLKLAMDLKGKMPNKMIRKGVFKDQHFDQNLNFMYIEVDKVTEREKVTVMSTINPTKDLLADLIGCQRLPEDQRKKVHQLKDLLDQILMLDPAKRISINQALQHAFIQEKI

Consider `COc1ccc2c(c1)O[C@H](c1ccc(OC)c(OC)c1)C[C@@H]2NC(=O)C1(c2ccc3c(c2)OC(F)(F)O3)CC1` [A-1596584], for which the % of control in data set [1] came to 56%; in data set [3] it was 39%. The same molecule gave an inhibition constant (Ki) in data set [2] of 218 nM.

`CN(C)CC#Cc1ccc(OCCCc2sc(N3CCc4cccc(C(=O)Nc5nc6ccccc6s5)c4C3)nc2C(=O)O)c(F)c1` [A-1155463]: the % of inhibition in data set [4] stood at 71.6%; in data set [5] it was 71.6%; in data set [6] it was 99.1%; in [7], 99.1%; in data set [8] it was 98.9%; in data set [9], 98.9%. The % of inhibition worked out at 69.2% at Histamine H1 receptor [10]; 69.2% on Histamine H1 receptor [11]; 77.9% in data set [12]; 77.9% in data set [13]; 62.2% in [15]; 62.2% in data set [16]. The % of inhibition is 94.9% in data set [18], 94.9% in [19], 74.5% in [21] and 74.5% in data set [22]. In addition, the % of control in data set [14] was 38%; in data set [17], 9%. The same molecule displayed a Ki in data set [20] of 794 nM.

A word on the Ki: it is a dissociation constant, usually derived from enzyme kinetics or from competition with a known ligand. Read a low Ki as tighter binding.
